In patent publication US20200360537A1, “A GANGLIOGLIOMA-INDUCED ANIMAL MODEL AND A METHOD FOR DIAGNOSING AND TREATING GANGLIOGLIOMA AND RELATED DISEASES” (KOREA ADVANCED INSTITUTE OF SCIENCE AND TECHNOLOGY, priority 2017, published 2020):

Test system: BRAF V600E mutant mice
Assay: Seizure reduction by BRAF V600E specific inhibitor in BRAF V600E mutant mice (video-EEG brainwave monitoring)
Type: in vivo, mouse

CCCS(=O)(=O)Nc1ccc(F)c(C(=O)c2c[nH]c3ncc(-c4ccc(Cl)cc4)cc23)c1F [BRAF V600E specific inhibitor, Vemurafenib]
seizure frequency (acute intracerebroventricular injection (3 times/day, 5 uL injection for 8 minutes), FIG. 17 left): not reduced | seizures over time (electrophysiologically confirmed) (cICV treatment for 6 weeks, FIG. 15 C): continuously reduced | reduction of icta (ictal) seizures (chronic intracranioventricular injection (cICV), 500 um PLX4032 via osmotic pump, vs vehicle, FIG. 15 B): about 4 times | seizure frequency (oral administration (PO, per oral), FIG. 17 right): not reduced
